Test results reported in patent publication US10975434B2, “Growth differentiation factor 15 as biomarker for metformin” (Sanofi-Aventis Deutschland GmbH, priority 2015, dated 2021).

Experiments:
GDF15 [1] = test: Multiplex serum biomarker analysis: GDF15 level versus metformin use and dose; assay type: in vivo, human; conditions: serum of people taking varying doses of metformin; FIG. 2
Method: At Myriad RBM Inc., the samples were thawed at room temperature (RT), vortexed, spun at 13,000 g for 5 minutes for clarification, and an aliquot was removed into a master microtiter plate for analysis. Using automated pipetting, an aliquot of each sample was introduced into one of the capture microsphere multiplexes of the Human DiscoveryMAP. The mixtures of sample and capture microspheres were thoroughly mixed and incubated at RT for 1 hour. Multiplexed cocktails of biotinylated reporter antibodies for each multiplex (such as GDF-15), were then added robotically, and after thorough mixing, were incubated for an additional hour at RT. Multiplexes were developed using an excess of streptavidinphycoerythrin solution which was thoroughly mixed into each multiplex and incubated for 1 hour at RT. […] Testing results were determined first for the high, medium and low controls for each multiplex to ensure proper assay performance. Unknown values for each of the analytes localized in a specific multiplex were determined using 4 and 5 parameter, weighted and non-weighted curve fitting algorithms included in the data analysis package^40. […]
The 237 available biomarkers were analyzed to identify those that were statistically independent determinants of the use of metformin using unadjusted logistic regression models and forward selection. […]

GDF15 mRNA = test: GDF15 messenger RNA expression in primary hepatocytes (BeadChip); assay type: cell-based, mouse; conditions: primary C57Bl6 hepatocytes, metformin 0.5 mM versus vehicle; P=0.003
Method: To further understand the link between metformin and GDF15 levels, in vitro experiments were conducted using mouse hepatocytes. Primary hepatocytes from 4 different C57Bl6 wild-type male mice were isolated by collagenase digestion as previously described^14. Briefly, cells were plated on 12-well collagen-coated plates overnight in William's Media E containing 10% fetal bovine serum (FBS) and 1% antibiotic-antimycotic. […] Media was then snap frozen and stored at −80° C. for later analyses, and cells were harvested in cell lysis buffer for assessment of total protein or RNA.
GDF15 release into the media was measured using a commercially available ELISA kit (R&D Systems, Minneapolis, Minn.) and expressed per mg of hepatocyte protein. Total RNA was isolated using the Trizol plus RNA Purification kit (Ambion), concentrated with Speedvac (Thermo), and then quantified using Quant-IT RiboGreen (LifeTech). Total RNA was then reverse transcribed and amplified using the Illumina TotalPrep RNA Amplification Kit (LifeTech) according to the manufacturer's protocol. Samples were hybridized to the Illumina Mouse Ref-8 v2.0 complementary DNA BeadChip and scanned on the iScan System (Illumina). The raw sample probe profile and control probe profile were exported from GenomeStudio version 1.9.0 (Illumina). […]

GDF15 [2] = test: Acute metformin injection, serum GDF15 in C57bl6 mice; assay type: in vivo, mouse; conditions: 250 mg/kg intraperitoneally, male C57bl6 mice, versus saline; P<0.05
Method: (§1) For the acute experiments, 12 (i.e. 6 per group) 20-week old male C57bl6 mice (Jackson Laboratories) were fasted for 12 hours then allowed to feed ad libitum for 2 hours prior to injection with either metformin (250 mg/kg in 10 μl/g body weight saline) or vehicle (10 μl/g body weight saline) intraperitoneally. Blood was collected 90 minutes later by tail vein bleed, and serum was assayed for GDF15 levels using the Elisa described above (R&D Systems, Minneapolis, Minn.). […] Fed bloods were sampled by tail vein bleed from the animals at the end of the treatment period and serum GDF15 measured as above. Animal experiments were all approved by the McMaster University Animal Ethics Committee.

GDF15 [3] = test: Chronic metformin in high-fat diet, serum GDF15 in obese C57bl6 mice; assay type: in vivo, mouse; conditions: obese insulin-resistant mice, 2.5 g/kg metformin in 60% high-fat diet for 6 weeks, versus untreated controls; P<0.05
Method: as §1

[4] = Outcomes during follow-up of biomarker study participants by baseline metformin use
[5] = share of the 2317 participants on metformin at baseline

For `CN(C)C(=N)NC(=N)N` [Metformin, metformin], the “mean concentration of GDF15 by metformin dose” value (GDF15 [1]) was “rose with progressively higher doses”, the “increase in GDF15 mRNA” value (GDF15 mRNA) was 1.6 fold and the “90 minute serum levels of GDF 15” value (GDF15 [2]) was “significantly increased”. For the same compound, the “serum GDF 15 levels after chronic treatment” value (GDF15 [3]) was “significantly increased”, the “Expanded Composite CV Outcome during follow-up, number of participants” value ([4]; participants on metformin at baseline, N 2317, P 0.008 vs no metformin) was 622 and the “Death during follow-up, number of participants” value ([4]; participants on metformin at baseline, N 2317, P 0.01 vs no metformin) was 331. The “Composite CV Outcome during follow-up, number of participants” value ([4]; participants on metformin at baseline, N 2317, median follow-up 6.2 years, P 0.007 vs no metformin) was 346, the “Composite CV Outcome during follow-up, value in parentheses” value [4, 5] was “(14.9)” and the “Death during follow-up, value in parentheses” value [4, 5] was “(14.3)”. For the same compound, the “Expanded Composite CV Outcome during follow-up, value in parentheses” value [4, 5] was “(26.8)”.
